Source: the NIST ThermoML archive (doi:10.1021/acs.jced.5b00251)

Test: refractive index (other wavelength) (dimensionless); xn = mol fraction of the nth substance listed
Settings: 101 kPa, Liquid, Standard Abbe refractometry

CC(C)Cc1ccccc1 [(2-methylpropyl)benzene] + c1ccc2c(c1)CCCC2
refractive index
Settings | x2 = 0.1014 | x2 = 0.2024 | x2 = 0.3032 | x2 = 0.4036 | x2 = 0.5038 | x2 = 0.6036 | x2 = 0.7032 | x2 = 0.8024 | x2 = 0.9014
308.15 K, Wavelength=436.1 nm | 1.50202 | 1.50759 | 1.5129 | 1.51879 | 1.52412 | 1.53042 | 1.53639 | 1.5425 | 1.54823
308.15 K, Wavelength=513.9 nm | 1.49045 | 1.49591 | 1.50103 | 1.50671 | 1.51215 | 1.51765 | 1.52366 | 1.52953 | 1.53505
308.15 K, Wavelength=589.3 nm | 1.48428 | 1.48939 | 1.49461 | 1.49955 | 1.50515 | 1.51099 | 1.51661 | 1.52237 | 1.52797
308.15 K, Wavelength=633.2 nm | 1.48142 | 1.48659 | 1.4917 | 1.49701 | 1.50224 | 1.50811 | 1.51368 | 1.51941 | 1.52477
308.15 K, Wavelength=657.2 nm | 1.48038 | 1.48538 | 1.49085 | 1.49669 | 1.50224 | 1.50738 | 1.51272 | 1.51825 | 1.52447
313.15 K, Wavelength=436.1 nm | 1.49957 | 1.5048 | 1.51044 | 1.51631 | 1.52152 | 1.52806 | 1.53388 | 1.54002 | 1.54572
313.15 K, Wavelength=513.9 nm | 1.48816 | 1.49321 | 1.49885 | 1.50413 | 1.50976 | 1.51512 | 1.52123 | 1.52715 | 1.53263
313.15 K, Wavelength=589.3 nm | 1.48198 | 1.48705 | 1.49215 | 1.49702 | 1.50259 | 1.50845 | 1.51422 | 1.52003 | 1.52558
313.15 K, Wavelength=633.2 nm | 1.47918 | 1.48409 | 1.48957 | 1.49422 | 1.49959 | 1.50542 | 1.51132 | 1.51708 | 1.52248
313.15 K, Wavelength=657.2 nm | 1.47807 | 1.48312 | 1.48866 | 1.49418 | 1.49947 | 1.50491 | 1.51025 | 1.51573 | 1.52168
318.15 K, Wavelength=436.1 nm | 1.49678 | 1.50247 | 1.50783 | 1.51372 | 1.51897 | 1.52533 | 1.53125 | 1.53748 | 1.54301
318.15 K, Wavelength=513.9 nm | 1.48564 | 1.49078 | 1.49611 | 1.50143 | 1.50751 | 1.51299 | 1.51892 | 1.52466 | 1.53007
318.15 K, Wavelength=589.3 nm | 1.47955 | 1.48455 | 1.48962 | 1.49455 | 1.49987 | 1.50614 | 1.51175 | 1.51758 | 1.52287
318.15 K, Wavelength=633.2 nm | 1.47656 | 1.48179 | 1.4869 | 1.49181 | 1.49721 | 1.50325 | 1.50887 | 1.51464 | 1.51989
318.15 K, Wavelength=657.2 nm | 1.47562 | 1.48056 | 1.48595 | 1.49181 | 1.49685 | 1.50222 | 1.50758 | 1.51388 | 1.51897
